In US20150065888A1, “METHOD AND APPARATUS FOR OBTAINING VASODILATION DATA REPRESENTING CUTANEOUS LOCAL THERMAL HYPEREMIA RESPONSE OF A SUBJECT” (NEW CHINESE BIOTECHNOLOGY CORPORATION LTD, priority 2012, published 2015):

System: cutaneous local thermal hyperemia response
Assay: Cutaneous local thermal hyperemia test by laser Doppler flowmetry before and after chemical intervention (oral β-blocker)
Assay type: in vivo, human
Conditions: subject with panic disorder, 30 minutes after oral propranolol 10 mg
Method: The participants were supine during the entire test period. Cutaneous blood flow was measured by LDF (Moor DRT4, Moor Instruments Ltd, Axminster, Devon, UK). For each measurement, blood pressure was recorded continuously with a non-invasive blood pressure monitor (CareTaker, Empirical Technologies Corporation, Charlottesville, Va., USA) on the middle finger of the dominant hand throughout the procedures.
Blood flow was recorded simultaneously on the upper one-fourth of the bilateral forearm using LDF (DP12-V2 probe, 2 channels, length: 12 mm, diameter 1.5 mm; Moor Instruments Ltd.), and two recording sites were located at the radial half of the flexor and extensor aspects of the forearm, which were located according to a predefined rule. The probe was mounted to a probe holder to hold the probe in position. The extensor and flexor recording sites were located along the line between the extensor and flexor aspects of the lateral epicondyle of the humerus, respectively, and the lateral side of the styloid process of radius. The same sites were measured bilaterally with the flexor and extensor aspects in a random sequence. The recording sites were kept thermally neutral at 33° C. by a heater (SH02-SHP2 probe, Moor Instruments Ltd.) for 5 minutes for the baseline measurement, and then the temperature was increased to 42° C. by 1° C./10 seconds and maintained at 42° C. for up to 5 minutes. After completing the measurements, the holders were maintained in situ, and all of the procedures were repeated with the same recording sequence 45 minutes after the first measurement. The holders were then removed without marking after the first day of the experiment. The same procedures were conducted at the same time 1 to 3 days later, and the recording sites were relocated according to the same predefined rule.
Cutaneous red blood cell flux (RBCF), expressed as arbitrary perfusion units (PUs), was used to indicate local cutaneous blood flow, and CVC (PU/mmHg), which derived from RBCF divided by mean arterial pressure to adjust for the influence of blood pressure, was the indicator of blood flow change.
Baseline CVC, peak CVC, absolute change of peak CVC, percent change of peak CVC, 4 minutes area-under-the-curve (AUC), and time to peak flux were used as indicators of the hyperemic response during heating. The absolute change of peak CVC was defined as the peak CVC minus baseline CVC, and the percentage of peak CVC change equals to the absolute change of peak CVC divided by baseline CVC multiplied by 100%. The 4 minutes AUC was the accumulation of blood flux during the first 4 minutes of the heating period. The time to peak flux was the period from the heating started and up to peak flux.
Upon arrival in the laboratory, the subjects were arranged on chairs in a temperature- and humidity-controlled laboratory (40-60% humidity, 25±1° C.) for acclimation of 30 minutes. After the acclimation period, the thermal hyperemia test was performed at specified sampling sites. The participants were supine during the entire test period. Cutaneous blood flow was measured by LDF (Moor DRT4, Moor Instruments Ltd, Axminster, Devon, UK). For each measurement, blood pressure was recorded continuously with a non-invasive blood pressure monitor (CareTaker, Empirical Technologies Corporation, Charlottesville, Va., USA) on the middle finger of the dominant hand throughout the procedures. The sampling and data processing procedures taught in Example 1, above, also applied in the present example.
Subject (45 kg) suffering from panic disorder was sampled at the infraclavicular, parasternal and axilla sites (points (i), (j) and (l) in FIG. 2) on both the right and left sides before and after the administration of β-blocker. Specifically, the post-β-blocker sampling procedure was performed at 30 minutes after the oral administration of β-blocker, propranolol, (10 mg).

CC(C)NCC(O)COc1cccc2ccccc12 (stereo not drawn) [propranolol]
CVCI, max, After (Axilla, left): 1.09 PU/mmHg
Initial AUC, After (Axilla, left): 17019 PU
ΔCVC, After (Axilla, left): 0.92 PU/mmHg
CVCI, max, After (Axilla, right): 1.91 PU/mmHg
Initial AUC, After (Axilla, right): 31740 PU
ΔCVC, After (Axilla, right): 1.63 PU/mmHg
CVCI, max, After (Infraclavicular, left): 1.03 PU/mmHg
Initial AUC, After (Infraclavicular, left): 17298 PU
ΔCVC, After (Infraclavicular, left): 0.88 PU/mmHg
CVCI, max, After (Infraclavicular, right): 1.95 PU/mmHg
Initial AUC, After (Infraclavicular, right): 33797 PU
ΔCVC, After (Infraclavicular, right): 1.76 PU/mmHg
CVCI, max, After (Parasternal, left): 1.45 PU/mmHg
Initial AUC, After (Parasternal, left): 26800 PU
ΔCVC, After (Parasternal, left): 1.28 PU/mmHg
CVCI, max, After (Parasternal, right): 2.53 PU/mmHg
Initial AUC, After (Parasternal, right): 47602 PU
ΔCVC, After (Parasternal, right): 2.36 PU/mmHg
